Source: patent publication US7632918B2, “Semi-synthetic glycopeptides with antibiotic activity” (Novartis Vaccines and Diagnostics, Inc., priority 2005, dated 2009)
Converted amounts (≈) assume the structure as drawn.

Experiments:
Assay in all cases: MIC, broth microdilution in Meuller-Hinton broth (NCCLS)
560 E. faecalis (GRE) = format: cell-based, Enterococcus faecalis; conditions: glycopeptide-resistant clinical isolate
Protocol: (§1) Antibacterial activity in vitro was investigated by broth microdilution method in Meuller-Hinton broth as recommended by NCCLS. All strains tested were clinical isolates either sensitive or resistant to natural glycopeptides. Results are reported in the tables as MIC (minimal inhibitory concentration) in μg/ml.
(§2) The glycopeptides were tested against a variety of strains, indicated below, including Staphylococus epidermidis, Staphylococus haemolyticus, glycopeptides-intermediate Staphylococus aureus (GISA), glocopeptide-sensitive Enterococcus faecalis (GSE), and glocopeptide-resistant Enterococcus faecalis (GRE). Results are shown in the table as minimum inhibitory concentration (MIC) in units of μg/ml: […]

559 E. faecalis (GSE) = format: cell-based, Enterococcus faecalis; conditions: glycopeptide-sensitive clinical isolate
Protocol: as §1, §2

602 S. haemolyticus = format: cell-based, Staphylococus haemolyticus; conditions: clinical isolate
Protocol: as §1, §2

3798 S. aureus (GISA) = format: cell-based, Staphylococus aureus; conditions: glycopeptides-intermediate clinical isolate
Protocol: as §1, §2

3797 S. aureus (GISA) = format: cell-based, Staphylococus aureus; conditions: glycopeptides-intermediate clinical isolate
Protocol: as §1, §2

533 S. epidermidis = format: cell-based, Staphylococus epidermidis; conditions: clinical isolate
Protocol: as §1, §2

569 E. faecium (GRE) = format: cell-based; conditions: glycopeptide-resistant clinical isolate
Protocol: as §1, §2

568 E. faecium (GSE) = format: cell-based; conditions: glycopeptide-sensitive clinical isolate
Protocol: as §1, §2

Structure (SMILES) | MIC 560 E. faecalis (GRE) (560 E. faecalis (GRE)) [µg/mL] | MIC 559 E. faecalis (GSE) (559 E. faecalis (GSE)) [µg/mL] | MIC 602 S. haemolyticus (602 S. haemolyticus) [µg/mL] | MIC 3798 S. aureus (GISA) (3798 S. aureus (GISA)) [µg/mL] | MIC 3797 S. aureus (GISA) (3797 S. aureus (GISA)) [µg/mL] | MIC 533 S. epidermidis (533 S. epidermidis) [µg/mL] | MIC 569 E. faecium (GRE) (569 E. faecium (GRE)) [µg/mL] | MIC 568 E. faecium (GSE) (568 E. faecium (GSE)) [µg/mL]
CNC(CC(C)C)C(=O)NC1C(=O)NC(CC(N)=O)C(=O)NC2C(=O)NC3C(=O)NC(C(=O)NC(C(=O)O)c4cc(O)cc(O)c4-c4cc3ccc4O)C(OC3CC(C)(N)C(O)C(C)O3)c3ccc(cc3)Oc3cc2cc(c3OC2OC(CO)C(O)C(O)C2OC2CC(C)(NC(=O)[C@@H](N)Cc3ccc(OCc4ccccc4)cc3)C(O)C(C)O2)Oc2ccc(cc2Cl)C1O (stereo partly drawn) [Compound 228] | >64 | 2 (≈ 1.1 µM) | 4 (≈ 2.21 µM) | 16 (≈ 8.83 µM) | 16 (≈ 8.83 µM) | 4 (≈ 2.21 µM) | >64 | 2 (≈ 1.1 µM)
CCCCc1ccc(CNCC(=O)NC2(C)CC(OC3C(Oc4c5cc6cc4Oc4ccc(cc4Cl)C(O)C(NC(=O)C(CC(C)C)NC)C(=O)NC(CC(N)=O)C(=O)NC6C(=O)NC4C(=O)NC(C(=O)NC(C(=O)NC(C)C67CC8CC(CC(C8)C6)C7)c6cc(O)cc(O)c6-c6cc4ccc6O)C(OC4CC(C)(N)C(O)C(C)O4)c4ccc(cc4)O5)OC(CO)C(O)C3O)OC(C)C2O)cc1 (stereo not drawn) [Compound 264] | 8 (≈ 4.16 µM) | 4 (≈ 2.08 µM) | 8 (≈ 4.16 µM) | 16 (≈ 8.32 µM) | 8 (≈ 4.16 µM) | 4 (≈ 2.08 µM) | 8 (≈ 4.16 µM) | 4 (≈ 2.08 µM)
CNC(CC(C)C)C(=O)NC1C(=O)NC(CC(N)=O)C(=O)NC2C(=O)NC3C(=O)NC(C(=O)NC(C(=O)O)c4cc(O)cc(O)c4-c4cc3ccc4O)C(OC3CC(C)(N)C(O)C(C)O3)c3ccc(cc3)Oc3cc2cc(c3OC2OC(CO)C(O)C(O)C2OC2CC(C)(NC(=O)CNCc3ccc(OCc4ccccc4)cc3)C(O)C(C)O2)Oc2ccc(cc2Cl)C1O (stereo not drawn) [Compound 223] | 64 (≈ 35.3 µM) | 2 (≈ 1.1 µM) | 4 (≈ 2.21 µM) | 8 (≈ 4.42 µM) | 8 (≈ 4.42 µM) | 2 (≈ 1.1 µM) | 16 (≈ 8.83 µM) | 2 (≈ 1.1 µM)
CCCCc1ccc(CN[C@@H](CCCN)C(=O)NC2(C)CC(OC3C(Oc4c5cc6cc4Oc4ccc(cc4Cl)C(O)C(NC(=O)C(CC(C)C)NC)C(=O)NC(CC(N)=O)C(=O)NC6C(=O)NC4C(=O)NC(C(=O)NC(C(=O)O)c6cc(O)cc(O)c6-c6cc4ccc6O)C(OC4CC(C)(N)C(O)C(C)O4)c4ccc(cc4)O5)OC(CO)C(O)C3O)OC(C)C2O)cc1 (stereo partly drawn) [Compound 242] | 8 (≈ 4.4 µM) | 1 (≈ 0.55 µM) | 1 (≈ 0.55 µM) | 4 (≈ 2.2 µM) | 4 (≈ 2.2 µM) | 0.25 (≈ 0.137 µM) | 8 (≈ 4.4 µM) | 0.5 (≈ 0.275 µM)
CNC(CC(C)C)C(=O)NC1C(=O)NC(CC(N)=O)C(=O)NC2C(=O)NC3C(=O)NC(C(=O)NC(C(=O)O)c4cc(O)cc(O)c4-c4cc3ccc4O)C(O)c3ccc(c(Cl)c3)Oc3cc2cc(c3OC2OC(CO)C(O)C(O)C2OC2CC(C)(NC(=O)CNc3ccc4ccccc4n3)C(O)C(C)O2)Oc2ccc(cc2Cl)C1O (stereo not drawn) [Compound 298] | 64 (≈ 39.2 µM) | 2 (≈ 1.22 µM) | 8 (≈ 4.9 µM) | 8 (≈ 4.9 µM) | 8 (≈ 4.9 µM) | 8 (≈ 4.9 µM) | >64 | 4 (≈ 2.45 µM)
CCCCc1ccc(CNCC(=O)NC2(C)CC(OC3C(Oc4c5cc6cc4Oc4ccc(cc4Cl)C(O)C4NC(=O)C(NC(=O)C6NC(=O)C(CC(N)=O)NC(=O)C(NC(=O)C(CC(C)C)NC)C(O)c6ccc(c(Cl)c6)O5)c5ccc(O)c(c5)-c5c(O)cc(O)cc5C(C(=O)NCc5ccc(F)cc5)NC4=O)OC(CO)C(O)C3O)OC(C)C2O)cc1 (stereo not drawn) [Compound 276] | 16 (≈ 9.09 µM) | 4 (≈ 2.27 µM) | 2 (≈ 1.14 µM) | 2 (≈ 1.14 µM) | 2 (≈ 1.14 µM) | 0.5 (≈ 0.284 µM) | 16 (≈ 9.09 µM) | 2 (≈ 1.14 µM)
CCCCc1ccc(CNCC(=O)NC2(C)CC(OC3C(Oc4c5cc6cc4Oc4ccc(cc4Cl)C(O)C(NC(=O)C(CC(C)C)NC)C(=O)NC(CC(N)=O)C(=O)NC6C(=O)NC4C(=O)NC(C(=O)NC(C(=O)NC6C7CC8CC(C7)CC6C8)c6cc(O)cc(O)c6-c6cc4ccc6O)C(OC4CC(C)(N)C(O)C(C)O4)c4ccc(cc4)O5)OC(CO)C(O)C3O)OC(C)C2O)cc1 (stereo not drawn) [Compound 263] | 8 (≈ 4.22 µM) | 8 (≈ 4.22 µM) | 8 (≈ 4.22 µM) | 16 (≈ 8.45 µM) | 16 (≈ 8.45 µM) | 8 (≈ 4.22 µM) | 8 (≈ 4.22 µM) | 8 (≈ 4.22 µM)
CCCCc1ccc(CNCC(=O)NC2(C)CC(OC3C(Oc4c5cc6cc4Oc4ccc(cc4Cl)C(O)C4NC(=O)C(NC(=O)C6NC(=O)C(CC(N)=O)NC(=O)C(NC(=O)C(CC(C)C)NC)C(O)c6ccc(c(Cl)c6)O5)c5ccc(O)c(c5)-c5c(O)cc(O)cc5C(C(=O)O)NC4=O)OC(CO)C(O)C3O)OC(C)C2O)cc1 (stereo not drawn) [Compound 182] | 32 (≈ 19.4 µM) | 1 (≈ 0.605 µM) | 0.5 (≈ 0.303 µM) | 2 (≈ 1.21 µM) | 2 (≈ 1.21 µM) | 0.25 (≈ 0.151 µM) | 32 (≈ 19.4 µM) | 0.5 (≈ 0.303 µM)
CCCCCCCCOc1ccc(CNCC(=O)NC2(C)CC(OC3C(Oc4c5cc6cc4Oc4ccc(cc4Cl)C(O)C(NC(=O)C(CC(C)C)NC)C(=O)NC(CC(N)=O)C(=O)NC6C(=O)NC4C(=O)NC(C(=O)NC(C(=O)O)c6cc(O)cc(O)c6-c6cc4ccc6O)C(OC4CC(C)(N)C(O)C(C)O4)c4ccc(cc4)O5)OC(CO)C(O)C3O)OC(C)C2O)cc1 (stereo not drawn) [Compound 214] | 8 (≈ 4.36 µM) | 1 (≈ 0.545 µM) | 1 (≈ 0.545 µM) | 4 (≈ 2.18 µM) | 4 (≈ 2.18 µM) | 1 (≈ 0.545 µM) | 8 (≈ 4.36 µM) | 0.5 (≈ 0.273 µM)
